Source: the supplement of paper PMC10307832

Experiments:
Test in all cases: relative viability (nuclei count vs DMSO), 5 days (fraction); higher = more cells survive
[1] = tested on: 201T
Procedure, shortened: (§1)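 Cells from lung cancer lines were seeded into 1536-well plates and, one day later, dosed by pin tool. Treatments were either a single drug or a fixed dose of an anchor drug with five library-drug doses (not always all listed) in √10 steps. After 5 days, nuclei were stained in a one-step fixation (final 0.05% Triton X-100, 1% formaldehyde, 1 ug/ml Hoechst) and counted on 4× images, and relative viability is the treated-to-vehicle nuclei ratio, as the median of duplicate plates.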

[2] = tested on: A-427
Procedure, shortened: as §1

[3] = tested on: BEN
Procedure, shortened: as §1

[4] = tested on: EKVX
Procedure, shortened: as §1

[5] = tested on: EMC-BAC-2
Procedure, shortened: as §1

[6] = tested on: EPLC-272H
Procedure, shortened: as §1

[7] = tested on: HCC-44
Procedure, shortened: as §1

[8] = tested on: HCC-827
Procedure, shortened: as §1

[9] = tested on: LCLC-103H
Procedure, shortened: as §1

[10] = tested on: LK-2
Procedure, shortened: as §1

[11] = tested on: LXF-289
Procedure, shortened: as §1

[12] = tested on: NCI-H1651
Procedure, shortened: as §1

[13] = tested on: NCI-H1793
Procedure, shortened: as §1

[14] = tested on: NCI-H1915
Procedure, shortened: as §1

[15] = tested on: NCI-H2087
Procedure, shortened: as §1

[16] = tested on: NCI-H2126
Procedure, shortened: as §1

[17] = tested on: NCI-H2347
Procedure, shortened: as §1

[18] = tested on: NCI-H358
Procedure, shortened: as §1

[19] = tested on: NCI-H460
Procedure, shortened: as §1

[20] = tested on: NCI-H596
Procedure, shortened: as §1

## Cc1cnc(-c2cnc(NCCNc3ccc(C#N)cn3)nc2-c2ccc(Cl)cc2Cl)[nH]1 + NC(=O)Nc1cc(-c2cccc(F)c2)sc1C(=O)N[C@H]1CCCNC1 [AZD7762] (partner 0.2 µM)
[1]; first compound 0.08 µM
  relative viability: 0.702
[1]; first compound 0.8 µM
  relative viability: 0.567
[1]; first compound 2.53 µM
  relative viability: 0.619
[2]; first compound 0.08 µM
  relative viability: 0.838
[2]; first compound 0.253 µM
  relative viability: 0.602
[2]; first compound 0.8 µM
  relative viability: 0.692
[2]; first compound 2.53 µM
  relative viability: 0.714
[3]; first compound 0.08 µM
  relative viability: 0.714
[3]; first compound 0.253 µM
  relative viability: 0.699
[3]; first compound 0.8 µM
  relative viability: 0.726
[3]; first compound 2.53 µM
  relative viability: 0.736
[4]; first compound 0.08 µM
  relative viability: 0.731
[4]; first compound 0.253 µM
  relative viability: 0.698
[4]; first compound 0.8 µM
  relative viability: 0.588
[4]; first compound 2.53 µM
  relative viability: 0.655
[5]; first compound 0.08 µM
  relative viability: 1.24
[5]; first compound 0.253 µM
  relative viability: 1.21
[5]; first compound 0.8 µM
  relative viability: 1.04
[5]; first compound 2.53 µM
  relative viability: 1.01
[6]; first compound 0.08 µM
  relative viability: 0.36
[6]; first compound 0.253 µM
  relative viability: 0.269
[6]; first compound 0.8 µM
  relative viability: 0.224
[6]; first compound 2.53 µM
  relative viability: 0.202
[7]; first compound 0.08 µM
  relative viability: 1.05
[7]; first compound 0.253 µM
  relative viability: 1.02
[7]; first compound 0.8 µM
  relative viability: 1.06
[7]; first compound 2.53 µM
  relative viability: 1.15
[8]; first compound 0.08 µM
  relative viability: 0.242
[8]; first compound 0.253 µM
  relative viability: 0.169
[8]; first compound 0.8 µM
  relative viability: 0.193
[8]; first compound 2.53 µM
  relative viability: 0.171
[9]; first compound 0.08 µM
  relative viability: 0.86
[9]; first compound 0.253 µM
  relative viability: 0.76
[9]; first compound 0.8 µM
  relative viability: 0.714
[9]; first compound 2.53 µM
  relative viability: 0.757
[10]; first compound 0.08 µM
  relative viability: 0.436
[10]; first compound 0.253 µM
  relative viability: 0.421
[10]; first compound 2.53 µM
  relative viability: 0.393
[11]; first compound 0.08 µM
  relative viability: 1.16
[11]; first compound 0.253 µM
  relative viability: 1.05
[11]; first compound 0.8 µM
  relative viability: 1.18
[11]; first compound 2.53 µM
  relative viability: 1.19
[12]; first compound 0.08 µM
  relative viability: 0.506
[12]; first compound 0.253 µM
  relative viability: 0.406
[12]; first compound 0.8 µM
  relative viability: 0.454
[12]; first compound 2.53 µM
  relative viability: 0.459
[13]; first compound 0.08 µM
  relative viability: 0.735
[13]; first compound 0.253 µM
  relative viability: 0.379
[13]; first compound 0.8 µM
  relative viability: 0.385
[13]; first compound 2.53 µM
  relative viability: 0.461
[14]; first compound 0.08 µM
  relative viability: 0.692
[14]; first compound 0.8 µM
  relative viability: 0.675
[14]; first compound 2.53 µM
  relative viability: 0.644
[15]; first compound 0.08 µM
  relative viability: 1.3
[15]; first compound 0.8 µM
  relative viability: 1.3
[15]; first compound 2.53 µM
  relative viability: 1.17
[16]; first compound 0.08 µM
  relative viability: 1.03
[16]; first compound 0.253 µM
  relative viability: 0.939
[16]; first compound 0.8 µM
  relative viability: 0.984
[16]; first compound 2.53 µM
  relative viability: 1.02
[17]; first compound 0.08 µM
  relative viability: 0.873
[17]; first compound 0.253 µM
  relative viability: 0.612
[17]; first compound 0.8 µM
  relative viability: 0.689
[17]; first compound 2.53 µM
  relative viability: 0.79
[18]; first compound 0.08 µM
  relative viability: 0.529
[18]; first compound 0.253 µM
  relative viability: 0.5
[18]; first compound 0.8 µM
  relative viability: 0.478
[18]; first compound 2.53 µM
  relative viability: 0.47
[19]; first compound 0.08 µM
  relative viability: 0.579
[19]; first compound 0.8 µM
  relative viability: 0.557
[19]; first compound 2.53 µM
  relative viability: 0.541
[20]; first compound 0.08 µM
  relative viability: 1.3
[20]; first compound 0.253 µM
  relative viability: 0.974
[20]; first compound 0.8 µM
  relative viability: 1.09
[20]; first compound 2.53 µM
  relative viability: 1.01

## O=c1[nH]c2ccccc2n1C1CCN(CCCC(c2ccc(F)cc2)c2ccc(F)cc2)CC1 [Pimozide] + NC(=O)Nc1cc(-c2cccc(F)c2)sc1C(=O)N[C@H]1CCCNC1 [AZD7762] (partner 0.2 µM)
[1]; first compound 0.08 µM
  relative viability: 0.602
[1]; first compound 0.253 µM
  relative viability: 0.615
[1]; first compound 0.8 µM
  relative viability: 0.541
[1]; first compound 2.53 µM
  relative viability: 0.537
[1]; first compound 8 µM
  relative viability: 0.652
[2]; first compound 0.08 µM
  relative viability: 0.711
[2]; first compound 0.253 µM
  relative viability: 0.703
[2]; first compound 0.8 µM
  relative viability: 0.764
[2]; first compound 2.53 µM
  relative viability: 0.637
[2]; first compound 8 µM
  relative viability: 0.676
[3]; first compound 0.08 µM
  relative viability: 0.762
[3]; first compound 0.253 µM
  relative viability: 0.753
[3]; first compound 0.8 µM
  relative viability: 0.618
[3]; first compound 2.53 µM
  relative viability: 0.713
[3]; first compound 8 µM
  relative viability: 0.886
[4]; first compound 0.253 µM
  relative viability: 0.711
[4]; first compound 0.8 µM
  relative viability: 0.618
[4]; first compound 2.53 µM
  relative viability: 0.749
[4]; first compound 8 µM
  relative viability: 0.592
[5]; first compound 0.08 µM
  relative viability: 1.06
[5]; first compound 0.253 µM
  relative viability: 1.03
[5]; first compound 0.8 µM
  relative viability: 1
[5]; first compound 2.53 µM
  relative viability: 1.09
[5]; first compound 8 µM
  relative viability: 1
[6]; first compound 0.08 µM
  relative viability: 0.229
[6]; first compound 0.253 µM
  relative viability: 0.163
[6]; first compound 0.8 µM
  relative viability: 0.265
[6]; first compound 2.53 µM
  relative viability: 0.289
[6]; first compound 8 µM
  relative viability: 0.282
[7]; first compound 0.08 µM
  relative viability: 1.01
[7]; first compound 0.253 µM
  relative viability: 0.992
[7]; first compound 0.8 µM
  relative viability: 0.849
[7]; first compound 2.53 µM
  relative viability: 0.98
[7]; first compound 8 µM
  relative viability: 0.971
[8]; first compound 0.253 µM
  relative viability: 0.2
[8]; first compound 0.8 µM
  relative viability: 0.211
[8]; first compound 2.53 µM
  relative viability: 0.236
[8]; first compound 8 µM
  relative viability: 0.28
[9]; first compound 0.08 µM
  relative viability: 0.743
[9]; first compound 0.253 µM
  relative viability: 0.778
[9]; first compound 0.8 µM
  relative viability: 0.733
[9]; first compound 2.53 µM
  relative viability: 0.802
[9]; first compound 8 µM
  relative viability: 0.686
[10]; first compound 0.08 µM
  relative viability: 0.539
[10]; first compound 0.253 µM
  relative viability: 0.438
[10]; first compound 0.8 µM
  relative viability: 0.376
[10]; first compound 8 µM
  relative viability: 0.417
[11]; first compound 0.08 µM
  relative viability: 1.07
[11]; first compound 0.253 µM
  relative viability: 1.1
[11]; first compound 0.8 µM
  relative viability: 1.08
[11]; first compound 2.53 µM
  relative viability: 1.13
[11]; first compound 8 µM
  relative viability: 0.962
[12]; first compound 0.08 µM
  relative viability: 0.453
[12]; first compound 0.253 µM
  relative viability: 0.423
[12]; first compound 0.8 µM
  relative viability: 0.41
[12]; first compound 2.53 µM
  relative viability: 0.433
[12]; first compound 8 µM
  relative viability: 0.469
[13]; first compound 0.08 µM
  relative viability: 0.553
[13]; first compound 0.253 µM
  relative viability: 0.36
[13]; first compound 0.8 µM
  relative viability: 0.352
[13]; first compound 2.53 µM
  relative viability: 0.263
[13]; first compound 8 µM
  relative viability: 0.28
[14]; first compound 0.08 µM
  relative viability: 0.661
[14]; first compound 0.253 µM
  relative viability: 0.61
[14]; first compound 2.53 µM
  relative viability: 0.674
[14]; first compound 8 µM
  relative viability: 0.718
[15]; first compound 0.08 µM
  relative viability: 1.27
[15]; first compound 0.253 µM
  relative viability: 1.31
[15]; first compound 2.53 µM
  relative viability: 1.22
[15]; first compound 8 µM
  relative viability: 1.25
[16]; first compound 0.08 µM
  relative viability: 1.02
[16]; first compound 0.253 µM
  relative viability: 1.06
[16]; first compound 0.8 µM
  relative viability: 1.01
[16]; first compound 2.53 µM
  relative viability: 1.02
[16]; first compound 8 µM
  relative viability: 1
[17]; first compound 0.08 µM
  relative viability: 0.782
[17]; first compound 0.253 µM
  relative viability: 0.689
[17]; first compound 0.8 µM
  relative viability: 0.723
[17]; first compound 2.53 µM
  relative viability: 0.736
[17]; first compound 8 µM
  relative viability: 0.744
[18]; first compound 0.08 µM
  relative viability: 0.565
[18]; first compound 0.253 µM
  relative viability: 0.67
[18]; first compound 0.8 µM
  relative viability: 0.625
[18]; first compound 2.53 µM
  relative viability: 0.508
[18]; first compound 8 µM
  relative viability: 0.505
[19]; first compound 0.08 µM
  relative viability: 0.615
[19]; first compound 0.253 µM
  relative viability: 0.539
[19]; first compound 0.8 µM
  relative viability: 0.625
[19]; first compound 2.53 µM
  relative viability: 0.693
[19]; first compound 8 µM
  relative viability: 0.549
[20]; first compound 0.08 µM
  relative viability: 1.17
[20]; first compound 0.253 µM
  relative viability: 1.31
[20]; first compound 0.8 µM
  relative viability: 1.31
[20]; first compound 2.53 µM
  relative viability: 1.19
[20]; first compound 8 µM
  relative viability: 1.04
